One test concerns C57BL/6 mice. Briefly: Morris water maze test, LPS brain disease animal model. The class given is in vivo. The protocol: The therapeutic effect of the compound of the present invention on dementia and Parkinson's disease based on the memory improving effect thereof was investigated using brain disease animal model (C57BL/6 mice at 10 weeks). First, LPS was injected into the mouse brain to construct brain disease animal model. The mice were divided into four groups according to the administration and exercise. The exercise was performed with treadmill at the speed of 2 meter/min for the first 5 minutes, at 5 meter/min for 5 minutes, at 8 meter/min for 5 minutes and at 20 meter/min for the last 5 minutes. At the finish, Morris water maze test was performed. As a result, the therapeutic effect of the compound of formula 1 of the present invention on dementia and Parkinson's disease via memory enhancement by the compound and exercise was confirmed in the brain disease animal model.

The target of another test is T1, PPARα (Homo sapiens, UniProt Q07869).
T1 construct: Full length PPARs plasmid DNA, reporter DNA confirming PPARs activity owing to its luciferase activity; expressed in transfected cells; host or cells: CV-1 cells
T1 sequence (Q07869 1-468): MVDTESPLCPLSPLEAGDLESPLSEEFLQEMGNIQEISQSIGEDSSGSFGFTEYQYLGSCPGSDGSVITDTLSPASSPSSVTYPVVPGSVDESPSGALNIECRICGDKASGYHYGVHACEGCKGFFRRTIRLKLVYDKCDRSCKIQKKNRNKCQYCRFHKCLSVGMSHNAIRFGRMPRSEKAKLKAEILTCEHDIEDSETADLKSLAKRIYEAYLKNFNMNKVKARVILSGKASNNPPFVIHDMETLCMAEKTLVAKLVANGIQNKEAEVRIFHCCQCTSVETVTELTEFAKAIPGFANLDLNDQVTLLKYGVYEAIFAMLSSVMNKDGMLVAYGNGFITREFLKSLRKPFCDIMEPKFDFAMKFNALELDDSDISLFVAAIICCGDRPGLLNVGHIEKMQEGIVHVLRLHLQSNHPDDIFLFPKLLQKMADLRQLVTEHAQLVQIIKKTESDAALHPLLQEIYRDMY
Briefly: Transfection assay (luciferase reporter) in CV-1 cells, PPARα. The format is cell-based. Conditions: 24 hours treatment. The protocol: (§1) The PPARδ activities of the R-form compound represented by formula 1 of the present invention and the S-form compound represented by formula 2 were measured by transfection assay. In addition, the selectivity to PPAR subtypes, PPARα and PPARγ, was examined. Cytotoxicity was tested by MTT assay and in vivo activity and toxicity was investigated by animal experiment using mice.
CV-1 cells were used in this assay. The cells were inoculated in a 96-well plate containing DMEM supplemented with 10% FBS, DBS (delipidated) and 1% penicillin/streptomycin and cultured in a 37 °C, 5% CO2 incubator. The experiment was performed according to the steps of inoculation, transfection, sample treatment and confirmation. Particularly, CV-1 cells were inoculated in a 96 well-plate (5000 cells/well), followed by transfection 24 hours later. Full length PPARs plasmid DNA, reporter DNA confirming PPARs activity owing to its luciferase activity, β-galactosidase DNA providing information on transfection efficiency, and transfection reagent were used for the transfection. The compounds of formula 1 and formula 2 were dissolved in dimethylsulfoxide (DMSO), which were treated to the cells via media at different concentrations. […] Luciferase activity and β-galactosidaseactivity were measured with Luminometer and a microplate reader. […] A graph was made with those values and EC50 was calculated.
(In a reporter assay the amount or activity of a reporter protein is the signal.)

The next test concerns ApoE−/− mouse. Briefly: Arteriosclerosis inhibiting effect, Sudan IV plaque staining. The class given is in vivo. Conditions: 2 mg/kg/day oral, high fat high cholesterol feeds, 28 days. The method, then:
In vivo animal test using ApoE−/− mouse, which is an animal model for arteriosclerosis, was performed to confirm the arteriosclerosis inhibiting effect of the compound of the present invention. The animals were orally administered with 2 mg/kg/day of the compound of formula 1 of the present invention while feeding with high fat, high cholesterol feeds (20% fat, 1.25% cholesterol; AIN-93G diet). 28 days later, plaque staining was performed over the whole artery using Sudan IV to investigate the arteriosclerosis inhibiting effect of the compound by comparing the results between experimental and control groups. As a result, arteriosclerosis was 30% inhibited in ApoE−/− mouse treated with the compound of formula 1 of the present invention, compared with the control.

The target of another test is T2, PPARδ (Homo sapiens, UniProt Q03181).
T2 sequence (Q03181 1-441): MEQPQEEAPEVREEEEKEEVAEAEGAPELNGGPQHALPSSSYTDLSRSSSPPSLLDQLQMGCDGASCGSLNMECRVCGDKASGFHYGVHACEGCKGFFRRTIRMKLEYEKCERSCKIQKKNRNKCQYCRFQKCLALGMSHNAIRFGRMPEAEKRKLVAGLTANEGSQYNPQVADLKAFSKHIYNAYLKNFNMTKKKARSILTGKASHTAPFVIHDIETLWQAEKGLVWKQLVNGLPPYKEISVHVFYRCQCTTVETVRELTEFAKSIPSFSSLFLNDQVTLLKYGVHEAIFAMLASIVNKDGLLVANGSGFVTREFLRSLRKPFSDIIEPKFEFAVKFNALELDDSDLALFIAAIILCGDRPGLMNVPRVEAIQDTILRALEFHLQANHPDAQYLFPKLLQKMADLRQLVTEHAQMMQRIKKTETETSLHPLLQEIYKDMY
The test can be described thus: Transfection assay (luciferase reporter) in CV-1 cells, PPARδ. Further details: Full length PPARs plasmid DNA, reporter DNA confirming PPARs activity owing to its luciferase activity; expressed in transfected cells; host or cells: CV-1 cells. The format is cell-based. The method, then:
as §1
CV-1 cells were used in this assay. The cells were inoculated in a 96-well plate containing DMEM supplemented with 10% FBS, DBS (delipidated) and 1% penicillin/streptomycin and cultured in a 37 °C, 5% CO2 incubator. The experiment was performed according to the steps of inoculation, transfection, sample treatment and confirmation. Particularly, CV-1 cells were inoculated in a 96 well-plate (5000 cells/well), followed by transfection 24 hours later. Full length PPARs plasmid DNA, reporter DNA confirming PPARs activity owing to its luciferase activity, β-galactosidase DNA providing information on transfection efficiency, and transfection reagent were used for the transfection. The compounds of formula 1 and formula 2 were dissolved in dimethylsulfoxide (DMSO), which were treated to the cells via media at different concentrations. After culturing the cells in the incubator for 24 hours, the cells were lysed by using lysis buffer. Luciferase activity and β-galactosidaseactivity were measured with Luminometer and a microplate reader. The obtained values of luciferase were modified by the values of β-galactosidase. A graph was made with those values and EC50 was calculated.

A further test concerns mice. The test can be described thus: GTT (glucose tolerance test), diabetes improving effect. The format is in vivo. Particulars: oral pre-treatment 78 days. The protocol:
GTT (glucose tolerance test) was performed to confirm the diabetes improving effect of the compound of the present invention. Glucose (1.5 g/Kg) was intra-abdominally administered to the mice pre-treated orally with samples for 78 days. Blood glucose was measured every hour. Fasting blood glucose was lower in the group treated with the compound of the present invention than in the group treated with vehicle or GW501516.

As a reminder, the EC50 is the concentration at which the effect is half-maximal. A low value points to higher potency in that assay. In the case of `Cc1cc(S[C@H](Cc2ccccc2)c2sc(-c3ccc(C(F)(F)F)cc3)nc2C)ccc1OCC(=O)O` (racemic) [formula 1], the “Results of water maze test” value in the test on C57BL/6 mice (Exercise (O), control 29 seconds) was 13 s; in the test with C57BL/6 mice (Exercise (X), control 36 seconds) it was 25 s. For the same compound, the “EC50 PPARα” value at PPARα is given as “ia”. The “arteriosclerosis inhibition compared with the control” value in the test on ApoE−/− mouse is listed as 30%. For the same compound, the response at PPARδ (CV-1 cells, 24 hours treatment) was half-maximal at 0.6 nM (EC50). On PPARδ (PPARδ), the “activity of R-isomer compared with S-isomer (formula 2)” value came to 10 times. For the same compound, on PPARδ (PPARδ versus PPARα and PPARγ), the “selectivity to PPARα and PPARγ” value is recorded as 100,000 times. For the same compound, the “time of rapid blood glucose decrease” value in the test with mice (glucose 1.5 g/Kg intra-abdominal) lay within 20 to 40 min. The fasting blood glucose result in the test on mice (compared with vehicle or GW501516 group) is listed as “lower”.

Source of the values: patent US8431715B2, “Thiazole compound (as PPARδ) ligand and pharmaceutical, cosmetic and health food comprised thereof” (Seoul National University Industry Foundation, priority 2007, dated 2013).
